The conditions of this series: Liquid, Closed cell (Static) method.

SMILES strings stand for the structures. Numbers after ± are expanded uncertainties.

A word on the vapor or sublimation pressure: it is the equilibrium pressure above the liquid or solid. As for `CCC(C)O` (stereo not drawn) [butan-2-ol], the “vapor or sublimation pressure” value (473.46 K) is given as 1500 ± 10 kPa.

Take `CCOC(C)=O` [ethyl acetate]: the “vapor or sublimation pressure” value (462.75 K) stood at 1500 ± 10 kPa. With `COC(C)=O` [methyl ethanoate], the “vapor or sublimation pressure” value (436.08 K) was found to be 1500 ± 10 kPa.

The values are drawn from the NIST ThermoML archive (doi:10.1021/acs.jced.5b00773).
